Results reported in PubChem BioAssay (NCI).
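Protocol summary: plate cells (96-well), add compound at 5 concentrations, incubate 48 h, interpolate endpoints linearly. GI50: concentration for 50% inhibition of growth. TGI: total growth inhibition.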

Columns and labels:
Assay in all cases: NCI anticancer screen, dose series, 48 h
NCI-H522 lung = test system: NCI-H522 lung
SNB-19 CNS = test system: SNB-19 CNS
SR leukemia = test system: SR leukemia
HCT-15 colon = test system: HCT-15 colon
U251 CNS = test system: U251 CNS
MCF7 breast = test system: MCF7 breast
T-47D breast = test system: T-47D breast
OVCAR-5 ovarian = test system: OVCAR-5 ovarian
LOX IMVI melanoma = test system: LOX IMVI melanoma
M14 melanoma = test system: M14 melanoma

Row | Structure (SMILES) | TGI (NCI-H522 lung) | TGI (SNB-19 CNS) | TGI (SR leukemia) | TGI (HCT-15 colon) | TGI (U251 CNS) | TGI (MCF7 breast) | TGI (T-47D breast) | TGI (OVCAR-5 ovarian) | TGI (LOX IMVI melanoma) | TGI (M14 melanoma) | GI50 (NCI-H522 lung) | GI50 (SNB-19 CNS) | GI50 (SR leukemia) | GI50 (U251 CNS) | GI50 (MCF7 breast) | GI50 (LOX IMVI melanoma) | GI50 (T-47D breast)
1 | CCC(C)C1=C(OC(C)=O)[N+]2([O-])Oc3ccc(-c4c(OC(C)=O)c(OC(C)=O)c(-c5ccc(OC(C)=O)cc5)c(OC(C)=O)c4OC(C)=O)cc3OC2(C(C)CC)C(=O)N1OC(C)=O (stereo not drawn) | 17.5 µM | > 50 µM | 30.6 µM | > 50 µM | > 50 µM | > 50 µM | 24.8 µM | > 50 µM | 43.5 µM | > 50 µM | – | – | – | – | – | – | –
2 | CN(C)CC(CC1=C(CC(CN(C)C)N(C)C)CCC1)N(C)C (stereo not drawn) | > 100 µM | > 100 µM | – | > 100 µM | > 100 µM | > 100 µM | – | > 100 µM | > 100 µM | – | – | – | – | – | – | – | –
3 | CC1=NN(c2cccc(Cl)c2)C2(SCC(=O)N2c2nc3ccccc3s2)/C1=C\c1cccs1 (stereo not drawn) | 61.8 µM | – | 30.1 µM | 54.8 µM | 41.6 µM | > 100 µM | > 100 µM | 56.7 µM | 66.5 µM | 89.3 µM | – | – | – | – | – | – | –
4 | Fc1ccc(C(OCCN2CCC3CCC(C2)N3C/C=C/c2ccco2)c2ccc(F)cc2)cc1 (stereo not drawn) | 20.5 µM | 32.8 µM | 42.7 µM | 18.6 µM | 21.1 µM | 22.7 µM | 20.8 µM | – | 24.2 µM | 18.8 µM | – | – | – | – | – | – | –
5 | O=C(c1cccs1)N(C(=S)OC12CC3CC(CC(C3)C1)C2)c1ccccc1 | 46 µM | > 100 µM | > 100 µM | > 100 µM | > 100 µM | > 100 µM | > 100 µM | > 100 µM | 92.9 µM | 43 µM | – | – | – | – | – | – | –
6 | O=C(/C=C/c1ccccc1)NNC(=O)c1c(Cl)c(Cl)c(Cl)c(Cl)c1-c1nc2ccccc2[nH]1 | 63.4 µM | – | > 100 µM | 90.7 µM | – | > 100 µM | 60.6 µM | > 100 µM | 59.6 µM | 83.5 µM | – | – | – | – | – | – | –
7 | O=c1[nH]nc(NNc2ccccc2)c2nnn(C3CCCCC3)c12 | – | > 100 µM | > 100 µM | > 100 µM | > 100 µM | > 100 µM | – | > 100 µM | > 100 µM | > 100 µM | – | – | – | – | – | – | –
8 | COc1cc2c(cc1O)CC[C@@H]1[C@@H]2CC[C@]2(C)[C@@H](OCCN(C)C)CC[C@@H]12 | 1.3 µM | 5.14 µM | 0.894 µM | – | 0.872 µM | 0.884 µM | – | – | 0.192 µM | – | 0.341 µM | 0.777 µM | 0.148 µM | 0.219 µM | 0.17 µM | 0.0949 µM | –
9 | Cc1c(N2C(=O)CS(=O)(=O)C2c2cccc(Oc3ccccc3)c2)c(=O)n(-c2ccccc2)n1C (stereo not drawn) | > 100 µM | > 100 µM | – | > 100 µM | > 100 µM | > 100 µM | > 100 µM | > 100 µM | > 100 µM | > 100 µM | – | – | – | – | – | – | –
10 | Cc1ccccc1C(=O)N/N=C/c1ccc(Sc2nccn2C)c([N+](=O)[O-])c1 | > 100 µM | > 100 µM | > 100 µM | > 100 µM | > 100 µM | > 100 µM | > 100 µM | > 100 µM | > 100 µM | > 100 µM | – | – | – | – | – | – | –
11 | COc1nc(C#CC2(O)CCCCC2)nc(OC)n1 | 21.9 µM | > 100 µM | 17.4 µM | 15.6 µM | 26.4 µM | 19.4 µM | > 100 µM | 25.4 µM | 11.7 µM | 38.3 µM | – | – | – | – | – | – | –
12 | Nc1ccccc1S(=O)(=O)c1ccccc1 | – | > 100 µM | > 100 µM | > 100 µM | > 100 µM | – | – | > 100 µM | > 100 µM | > 100 µM | – | – | – | – | – | – | –
13 | CC(=O)C1=C(C)N(c2ccc(C)cc2)C2(O)C=CC(=O)C3C(=O)N(c4ccccc4)C(=O)C132 (stereo not drawn) | 22 µM | 65.6 µM | 23.7 µM | > 100 µM | 65.6 µM | 53.7 µM | 54.6 µM | > 100 µM | – | > 100 µM | – | – | – | – | – | – | –
14 | CCCNC(=O)CCC(C)C1CCC2C3C(C[C@H](OC(C)=O)[C@]12C)[C@@]1(C)CCC2(C[C@H]1C[C@H]3OC(C)=O)OOC1(CC[C@]3(C)C4C[C@H](OC(C)=O)[C@]5(C)C(C(C)CCC(=O)NCCC)CCC5C4[C@H](OC(C)=O)C[C@@H]3C1)OO2 (stereo partly drawn) | > 100 µM | > 100 µM | > 100 µM | > 100 µM | > 100 µM | > 100 µM | > 100 µM | > 100 µM | > 100 µM | > 100 µM | – | – | – | – | – | – | > 100 µM
15 | CC12CC3OC(=O)C1COC14OC5(C2C1=O)C(O)(CCC1C4CC(O)C2(O)CC=CC(=O)C12C)C(=O)OC35C (stereo not drawn) | > 100 µM | > 100 µM | – | > 100 µM | > 100 µM | > 100 µM | > 100 µM | > 100 µM | > 100 µM | > 100 µM | – | – | – | – | – | – | –
16 | O=C(OCN1C(=O)C2C3C=CC(C2C1=O)C1C2C(=O)N(COC(=O)C4CCCN4)C(=O)C2C31)C1CCCN1 (stereo not drawn) | > 100 µM | > 100 µM | 26.4 µM | > 58.7 µM | > 67.5 µM | – | – | > 100 µM | > 64.5 µM | > 100 µM | – | – | – | – | – | – | –
17 | CC1CC[C@@]2(OC1)OC1C[C@H]3[C@@H]4CC=C5CC(OC6OC(CO)C(OC7OC(CO)C(O)C(OC8OCC(O)C(O)C8O)C7OC7OC(CO)C(O)C(O)C7O)C(O)C6O)CCC5(C)[C@H]4CCC3(C)C1[C@@H]2C (stereo partly drawn) | 9.69 µM | > 25 µM | 17.7 µM | > 25 µM | 8.72 µM | 14.6 µM | 11.9 µM | > 25 µM | 8.53 µM | 17.1 µM | – | – | – | – | – | – | –
18 | COc1cccc2c1Cc1cc(-c3ccccc3)[n+](C)n1-2 | > 100 µM | > 100 µM | > 100 µM | > 100 µM | > 100 µM | 5.53 µM | 17.7 µM | > 100 µM | 29.3 µM | 24.9 µM | – | – | – | – | – | – | –
19 | CNC(=O)OCc1c(CO)nc(SC)n1C | > 100 µM | > 100 µM | – | > 100 µM | > 100 µM | > 100 µM | – | > 100 µM | > 100 µM | – | – | – | – | – | – | – | –
20 | O=C(/C=C/c1ccc(O)c(-c2cc(C(=O)/C=C/c3ccc(O)cc3)c(O)cc2O)c1)c1ccc(O)cc1O | > 50 µM | > 50 µM | 28.4 µM | > 50 µM | > 50 µM | > 50 µM | > 50 µM | > 50 µM | 43.1 µM | > 50 µM | – | – | – | – | – | – | –
21 | CNc1ccc2c(c1)[C@@]1(C)c3ccccc3[C@@H](C2)N1C | 37.7 µM | > 100 µM | 54.7 µM | 53 µM | 47.5 µM | > 100 µM | > 100 µM | 86.2 µM | 36.6 µM | 49.6 µM | – | – | – | – | – | – | –
